Experimental data: ChEMBL document CHEMBL1134994, “Synthesis and in vitro antiprotozoal activity of 5-nitrothiophene-2-carboxaldehyde thiosemicarbazone derivatives” (Bioorg Med Chem Lett, 2002)

These compounds were tested on Entamoeba histolytica (assay: Inhibitory concentration against Entamoeba histolytica (HK-9) for antiprotozoal activity). Conditions: not given.
Type: functional, organism-based

Compound | IC50 [µM]
CCCC/N=C(\S)N/N=C/c1ccc([N+](=O)[O-])s1 | 12.2
CC(C)CN(CC(C)C)/C(S)=N/N=C/c1ccc([N+](=O)[O-])s1 | 11.6
O=[N+]([O-])c1ccc(/C=N/N=C(\S)N2CCCCCC2)s1 | 1.71
O=[N+]([O-])c1ccc(/C=N/N=C(\S)NC2CCCCC2)s1 | 2.41
CCCN(CCC)/C(S)=N/N=C/c1ccc([N+](=O)[O-])s1 | 6.4
CC(C)C/N=C(\S)N/N=C/c1ccc([N+](=O)[O-])s1 | 13.5
O=[N+]([O-])c1ccc(/C=N/N=C(\S)NC2CCCC2)s1 | 2.86
Cc1ncc([N+](=O)[O-])n1CCO [METRONIDAZOLE] | 2.1

Continued by falling IC50, values first:

IC50 [µM] | Compound
15.4 | CCC/N=C(\S)N/N=C/c1ccc([N+](=O)[O-])s1
10.1 | CCN(CC)/C(S)=N/N=C/c1ccc([N+](=O)[O-])s1
9.6 | CC(C)/N=C(\S)N/N=C/c1ccc([N+](=O)[O-])s1
8.3 | CN(/C(S)=N/N=C/c1ccc([N+](=O)[O-])s1)C1CCCCC1

The compounds below were run on Giardia intestinalis (assay: Inhibitory concentration against G. Lamblia (IMSS-0989) for antigiardial activity). Conditions: Giardia duodenalis.
Type: functional, organism-based

Compound | IC50 [µM]
CCCC/N=C(\S)N/N=C/c1ccc([N+](=O)[O-])s1 | 17.2
CC(C)CN(CC(C)C)/C(S)=N/N=C/c1ccc([N+](=O)[O-])s1 | 12
O=[N+]([O-])c1ccc(/C=N/N=C(\S)N2CCCCCC2)s1 | 8.47
O=[N+]([O-])c1ccc(/C=N/N=C(\S)NC2CCCCC2)s1 | 13.9
CCCN(CCC)/C(S)=N/N=C/c1ccc([N+](=O)[O-])s1 | 8.2
CC(C)C/N=C(\S)N/N=C/c1ccc([N+](=O)[O-])s1 | 33.3
O=[N+]([O-])c1ccc(/C=N/N=C(\S)NC2CCCC2)s1 | 33
Cc1ncc([N+](=O)[O-])n1CCO [METRONIDAZOLE] | 1.16

More lines, now with the values ahead:

IC50 [µM] | Compound
57.3 | CCC/N=C(\S)N/N=C/c1ccc([N+](=O)[O-])s1
8.03 | CCN(CC)/C(S)=N/N=C/c1ccc([N+](=O)[O-])s1
26.2 | CC(C)/N=C(\S)N/N=C/c1ccc([N+](=O)[O-])s1
11.7 | CN(/C(S)=N/N=C/c1ccc([N+](=O)[O-])s1)C1CCCCC1

Each compound was assayed on Trichomonas vaginalis (assay: Inhibitory concentration against Trichomonas vaginalis (tv-43) for anti-trichomonal activity). Conditions: not given.
Type: functional, organism-based

Compound | IC50 [µM]
CCCC/N=C(\S)N/N=C/c1ccc([N+](=O)[O-])s1 | 1.49
CC(C)CN(CC(C)C)/C(S)=N/N=C/c1ccc([N+](=O)[O-])s1 | 4.44
O=[N+]([O-])c1ccc(/C=N/N=C(\S)N2CCCCCC2)s1 | 8.78
O=[N+]([O-])c1ccc(/C=N/N=C(\S)NC2CCCCC2)s1 | 10.7
CCCN(CCC)/C(S)=N/N=C/c1ccc([N+](=O)[O-])s1 | 4.06
CC(C)C/N=C(\S)N/N=C/c1ccc([N+](=O)[O-])s1 | 6.31
O=[N+]([O-])c1ccc(/C=N/N=C(\S)NC2CCCC2)s1 | 3.97
Cc1ncc([N+](=O)[O-])n1CCO [METRONIDAZOLE] | 1.92

Now from value to compound:

IC50 [µM] | Compound
21 | CCC/N=C(\S)N/N=C/c1ccc([N+](=O)[O-])s1
6.01 | CCN(CC)/C(S)=N/N=C/c1ccc([N+](=O)[O-])s1
5.94 | CC(C)/N=C(\S)N/N=C/c1ccc([N+](=O)[O-])s1
18.3 | CN(/C(S)=N/N=C/c1ccc([N+](=O)[O-])s1)C1CCCCC1
